The target of this assay is human A2A receptor (A2AR) (Homo sapiens, UniProt P29274). Put plainly: Luciferase reporter assay (HEK293-A2AR-luc2p/CRE/Hygro cells, 3 nM CGS21680). It counts as cell-based. To be noted: 3 nM CGS21680, 5 h incubation. The procedure, abridged:
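Antagonist (0.1–10000 nM) and 3 nM CGS21680 were co-added for 5 h to stable HEK293-A2AR-luc2p/CRE cells, 18 h after seeding in 1% FBS medium containing adenosine deaminase. Luminescence was normalized to agonist alone (100%), and IC50 came from the dose–inhibition curve.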
Sequence of human A2A receptor (A2AR) (P29274 whole entry): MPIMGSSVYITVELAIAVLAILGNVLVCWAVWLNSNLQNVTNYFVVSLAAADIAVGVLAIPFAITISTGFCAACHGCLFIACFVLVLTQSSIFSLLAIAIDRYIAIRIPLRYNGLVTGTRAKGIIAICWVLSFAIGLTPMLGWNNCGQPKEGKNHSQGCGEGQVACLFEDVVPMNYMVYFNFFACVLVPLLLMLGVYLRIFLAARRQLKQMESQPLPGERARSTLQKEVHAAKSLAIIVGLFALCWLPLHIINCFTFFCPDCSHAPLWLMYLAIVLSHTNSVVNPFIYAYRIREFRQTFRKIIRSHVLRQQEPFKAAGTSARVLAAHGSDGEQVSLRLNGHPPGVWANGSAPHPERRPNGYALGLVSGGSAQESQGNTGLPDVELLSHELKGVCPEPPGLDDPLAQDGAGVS
In the case of `C[C@](C(=O)N1CCN(c2ccc(OCCCN3CCCC3)cc2)CC1)(c1ccccc1)n1ncc2c1nc(N)n1nc(-c3ccco3)nc21` [Compound A79b, (R)-2-(5-amino-2-(furan-2-yl)-7H-pyrazolo[4,3-e][1,2,4]triazolo[1,5-c]pyrimidin-7-yl)-2-phenyl-1-(4-(4-(3-(pyrrolidin-1-yl)propoxy)phenyl)piperazin-1-yl)propan-1-one], half-maximal inhibition (IC50) was put at 6.8 nM. Consider `CC(C(=O)N1CCN(c2ccc(OCCN3CCOCC3)cc2)CC1)(c1ccccc1)n1ncc2c1nc(N)n1nc(-c3ccco3)nc21` (centres unmarked) [Compound A80, 2-(5-amino-2-(furan-2-yl)-7H-pyrazolo[4,3-e][1,2,4]triazolo[1,5-c]pyrimidin-7-yl)-1-(4-(4-(2-morpholinoethoxy)phenyl)piperazin-1-yl)-2-phenylpropan-1-one], for which the concentration for half-maximal inhibition (IC50) turned out to be 4.3 nM. Against the preceding compound, the IC50 is about 1.6-fold lower. `C[C@@](C(=O)N1CCN(c2ccc(OCCN3CCOCC3)cc2)CC1)(c1ccccc1)n1ncc2c1nc(N)n1nc(-c3ccco3)nc21` [Compound A80a, (S)-2-(5-amino-2-(furan-2-yl)-7H-pyrazolo[4,3-e][1,2,4]triazolo[1,5-c]pyrimidin-7-yl)-1-(4-(4-(2-morpholinoethoxy)phenyl)piperazin-1-yl)-2-phenylpropan-1-one]: the IC50 was 7.4 nM. For `C[C@](C(=O)N1CCN(c2ccc(OCCN3CCOCC3)cc2)CC1)(c1ccccc1)n1ncc2c1nc(N)n1nc(-c3ccco3)nc21` [Compound A80b, (R)-2-(5-amino-2-(furan-2-yl)-7H-pyrazolo[4,3-e][1,2,4]triazolo[1,5-c]pyrimidin-7-yl)-1-(4-(4-(2-morpholinoethoxy)phenyl)piperazin-1-yl)-2-phenylpropan-1-one], the midpoint of inhibition, the IC50, lay at 2.8 nM.

`CN1CCN(CCOc2ccc(N3CCN(C(=O)C(C)(c4ccccc4)n4ncc5c4nc(N)n4nc(-c6ccco6)nc54)CC3)cc2)CC1` (centres unmarked) [Compound A81, 2-(5-amino-2-(furan-2-yl)-7H-pyrazolo[4,3-e][1,2,4]triazolo[1,5-c]pyrimidin-7-yl)-1-(4-(4-(2-(4-methylpiperazin-1-yl)ethoxy)phenyl)piperazin-1-yl)-2-phenylpropan-1-one] returned an IC50 of 4.7 nM.

On to `CN1CCN(CCOc2ccc(N3CCN(C(=O)[C@](C)(c4ccccc4)n4ncc5c4nc(N)n4nc(-c6ccco6)nc54)CC3)cc2)CC1` [Compound A81a, (S)-2-(5-amino-2-(furan-2-yl)-7H-pyrazolo[4,3-e][1,2,4]triazolo[1,5-c]pyrimidin-7-yl)-1-(4-(4-(2-(4-methylpiperazin-1-yl)ethoxy)phenyl)piperazin-1-yl)-2-phenylpropan-1-one], for which the midpoint of inhibition, the IC50, lay at 7.9 nM. Compound `CN1CCN(CCOc2ccc(N3CCN(C(=O)[C@@](C)(c4ccccc4)n4ncc5c4nc(N)n4nc(-c6ccco6)nc54)CC3)cc2)CC1` [Compound A81b, (R)-2-(5-amino-2-(furan-2-yl)-7H-pyrazolo[4,3-e][1,2,4]triazolo[1,5-c]pyrimidin-7-yl)-1-(4-(4-(2-(4-methylpiperazin-1-yl)ethoxy)phenyl)piperazin-1-yl)-2-phenylpropan-1-one] came in with a concentration for half-maximal inhibition (IC50) of 2.6 nM.

In the case of `CN1CCN(CCCOc2ccc(N3CCN(C(=O)C(C)(c4ccccc4)n4ncc5c4nc(N)n4nc(-c6ccco6)nc54)CC3)cc2)CC1` (centres unmarked) [Compound A82, 2-(5-amino-2-(furan-2-yl)-7H-pyrazolo[4,3-e][1,2,4]triazolo[1,5-c]pyrimidin-7-yl)-1-(4-(4-(3-(4-methylpiperazin-1-yl)propoxy)phenyl)piperazin-1-yl)-2-phenylpropan-1-one], it took 7.1 nM to reach half-maximal inhibition (IC50). The value for `CN1CCN(CCCOc2ccc(N3CCN(C(=O)[C@](C)(c4ccccc4)n4ncc5c4nc(N)n4nc(-c6ccco6)nc54)CC3)cc2)CC1` [Compound A82a, (S)-2-(5-amino-2-(furan-2-yl)-7H-pyrazolo[4,3-e][1,2,4]triazolo[1,5-c]pyrimidin-7-yl)-1-(4-(4-(3-(4-methylpiperazin-1-yl)propoxy)phenyl)piperazin-1-yl)-2-phenylpropan-1-one] was 12.2 nM; that for `CN1CCN(CCCOc2ccc(N3CCN(C(=O)[C@@](C)(c4ccccc4)n4ncc5c4nc(N)n4nc(-c6ccco6)nc54)CC3)cc2)CC1` [Compound A82b, (R)-2-(5-amino-2-(furan-2-yl)-7H-pyrazolo[4,3-e][1,2,4]triazolo[1,5-c]pyrimidin-7-yl)-1-(4-(4-(3-(4-methylpiperazin-1-yl)propoxy)phenyl)piperazin-1-yl)-2-phenylpropan-1-one] was 4.9 nM; that for `CC(C(=O)N1CCN(c2ccc(C(=O)NCC3(O)COC3)cc2)CC1)(c1ccccc1)n1ncc2c1nc(N)n1nc(-c3ccco3)nc21` (centres unmarked) [Compound A83, 4-(4-(2-(5-amino-2-(furan-2-yl)-7H-pyrazolo[4,3-e][1,2,4]triazolo[1,5-c]pyrimidin-7-yl)-2-phenylpropanoyl)piperazin-1-yl)-N-((3-hydroxyoxetan-3-yl)methyl)benzamide] was 3.7 nM.

`CCC(C(=O)N1CCN(c2ccc(OCCOC)cc2)CC1)(c1ccccc1)n1ncc2c1nc(N)n1nc(-c3ccco3)nc21` (centres unmarked) [Compound A84, 2-(5-amino-2-(furan-2-yl)-7H-pyrazolo[4,3-e][1,2,4]triazolo[1,5-c]pyrimidin-7-yl)-1-(4-(4-(2-methoxyethoxy)phenyl)piperazin-1-yl)-2-phenylbutan-1-one] displayed a concentration for half-maximal inhibition (IC50) of 28.3 nM. This IC50 lies about 7.6-fold higher than the previous one. The compound `CC(C(=O)N1CCN(c2ccc(OCCCN3CCCCC3)cc2)CC1)(c1ccccc1)n1ncc2c1nc(N)n1nc(-c3ccco3)nc21` (centres unmarked) [Compound A85, 2-(5-amino-2-(furan-2-yl)-7H-pyrazolo[4,3-e][1,2,4]triazolo[1,5-c]pyrimidin-7-yl)-2-phenyl-1-(4-(4-(3-(piperidin-1-yl)propoxy)phenyl)piperazin-1-yl)propan-1-one] gave an IC50 of 11.6 nM. Turning to `COCCOc1ccc(N2CCN(C(=O)C(C)(c3cccc(F)c3)n3ncc4c3nc(N)n3nc(-c5ccco5)nc43)CC2)cc1` (centres unmarked) [Compound A86, 2-(5-amino-2-(furan-2-yl)-7H-pyrazolo[4,3-e][1,2,4]triazolo[1,5-c]pyrimidin-7-yl)-2-(3-fluorophenyl)-1-(4-(4-(2-methoxyethoxy)phenyl)piperazin-1-yl)propan-1-one], half-maximal inhibition (IC50) was put at 6.8 nM. This IC50 is about 1.7-fold lower than that of the compound before. Take `COCCOc1ccc(N2CCN(C(=O)C(C)(c3ccccc3F)n3ncc4c3nc(N)n3nc(-c5ccco5)nc43)CC2)cc1` (centres unmarked) [Compound A87, 2-(5-amino-2-(furan-2-yl)-7H-pyrazolo[4,3-e][1,2,4]triazolo[1,5-c]pyrimidin-7-yl)-2-(2-fluorophenyl)-1-(4-(4-(2-methoxyethoxy)phenyl)piperazin-1-yl)propan-1-one]: half-maximal inhibition (IC50) was put at 2 nM. In turn, `CN(C)C(=O)c1cccc(N2CCN(C(=O)C(C)(c3ccccc3)n3ncc4c3nc(N)n3nc(-c5ccco5)nc43)CC2)c1` (centres unmarked) [Compound A88, 3-(4-(2-(5-amino-2-(furan-2-yl)-7H-pyrazolo[4,3-e][1,2,4]triazolo[1,5-c]pyrimidin-7-yl)-2-phenylpropanoyl)piperazin-1-yl)-N,N-dimethylbenzamide] yielded a concentration for half-maximal inhibition (IC50) of 7 nM. This IC50 lies about 3.5-fold higher than the previous one.

In turn, `CC(C(=O)N1CCN(c2cccc(C(=O)N3CCCCC3)c2)CC1)(c1ccccc1)n1ncc2c1nc(N)n1nc(-c3ccco3)nc21` (centres unmarked) [Compound A89, 2-(5-amino-2-(furan-2-yl)-7H-pyrazolo[4,3-e][1,2,4]triazolo[1,5-c]pyrimidin-7-yl)-2-phenyl-1-(4-(3-(piperidine-1-carbonyl)phenyl)piperazin-1-yl)propan-1-one] yielded a half-maximal inhibitory concentration (IC50) of 13.8 nM.

For the origin of these results see US20210300936A1, “PYRAZOLOTRIAZOLOPYRIMIDINE DERIVATIVES AS A2A RECEPTOR ANTAGONIST” (BEIGENE, LTD., priority 2018, published 2021).
